The target of one test is T1, Helios (Homo sapiens, UniProt Q96SW2+Q9UKS7).
T1 construct: fluorescently labelled antibodies against Helios and Ikaros; endogenous in cells; host or cells: Jurkat cells
In words: Helios Cellular Degradation Assay (flow cytometry, Helios-PE antibody staining, 72 h). Type of test: cell-based. The settings on record: for Dmax: Jurkat, read-out: Helios Dmax. Put shortly: (§1)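 Jurkat cells (80,000/well, RPMI+10% FBS) were exposed to compound for 72 h at 37 °C, then fixed, permeabilized and co-stained for 1 h with Ikaros-Alexa488 and Helios-PE antibodies. Intracellular protein levels were read by flow cytometry.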

The target in a further test is T2, Ikaros (Homo sapiens, UniProt Q13422).
T2 construct: fluorescently labelled antibodies against Helios and Ikaros; endogenous in cells; host or cells: Jurkat cells
T2 sequence (Q96SW2 whole entry partner): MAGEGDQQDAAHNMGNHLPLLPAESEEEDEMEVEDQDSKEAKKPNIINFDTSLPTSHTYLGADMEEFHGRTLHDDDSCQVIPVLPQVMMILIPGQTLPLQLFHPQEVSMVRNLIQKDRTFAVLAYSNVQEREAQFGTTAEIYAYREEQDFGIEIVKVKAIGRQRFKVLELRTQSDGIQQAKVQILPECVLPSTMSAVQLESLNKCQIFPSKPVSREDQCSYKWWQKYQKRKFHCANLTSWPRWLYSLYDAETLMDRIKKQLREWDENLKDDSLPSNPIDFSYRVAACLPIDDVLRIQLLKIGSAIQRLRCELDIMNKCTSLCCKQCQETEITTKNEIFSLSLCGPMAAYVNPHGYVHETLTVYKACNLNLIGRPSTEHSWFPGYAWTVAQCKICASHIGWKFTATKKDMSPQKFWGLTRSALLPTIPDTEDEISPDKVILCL
T2 sequence (Q16531 whole entry partner): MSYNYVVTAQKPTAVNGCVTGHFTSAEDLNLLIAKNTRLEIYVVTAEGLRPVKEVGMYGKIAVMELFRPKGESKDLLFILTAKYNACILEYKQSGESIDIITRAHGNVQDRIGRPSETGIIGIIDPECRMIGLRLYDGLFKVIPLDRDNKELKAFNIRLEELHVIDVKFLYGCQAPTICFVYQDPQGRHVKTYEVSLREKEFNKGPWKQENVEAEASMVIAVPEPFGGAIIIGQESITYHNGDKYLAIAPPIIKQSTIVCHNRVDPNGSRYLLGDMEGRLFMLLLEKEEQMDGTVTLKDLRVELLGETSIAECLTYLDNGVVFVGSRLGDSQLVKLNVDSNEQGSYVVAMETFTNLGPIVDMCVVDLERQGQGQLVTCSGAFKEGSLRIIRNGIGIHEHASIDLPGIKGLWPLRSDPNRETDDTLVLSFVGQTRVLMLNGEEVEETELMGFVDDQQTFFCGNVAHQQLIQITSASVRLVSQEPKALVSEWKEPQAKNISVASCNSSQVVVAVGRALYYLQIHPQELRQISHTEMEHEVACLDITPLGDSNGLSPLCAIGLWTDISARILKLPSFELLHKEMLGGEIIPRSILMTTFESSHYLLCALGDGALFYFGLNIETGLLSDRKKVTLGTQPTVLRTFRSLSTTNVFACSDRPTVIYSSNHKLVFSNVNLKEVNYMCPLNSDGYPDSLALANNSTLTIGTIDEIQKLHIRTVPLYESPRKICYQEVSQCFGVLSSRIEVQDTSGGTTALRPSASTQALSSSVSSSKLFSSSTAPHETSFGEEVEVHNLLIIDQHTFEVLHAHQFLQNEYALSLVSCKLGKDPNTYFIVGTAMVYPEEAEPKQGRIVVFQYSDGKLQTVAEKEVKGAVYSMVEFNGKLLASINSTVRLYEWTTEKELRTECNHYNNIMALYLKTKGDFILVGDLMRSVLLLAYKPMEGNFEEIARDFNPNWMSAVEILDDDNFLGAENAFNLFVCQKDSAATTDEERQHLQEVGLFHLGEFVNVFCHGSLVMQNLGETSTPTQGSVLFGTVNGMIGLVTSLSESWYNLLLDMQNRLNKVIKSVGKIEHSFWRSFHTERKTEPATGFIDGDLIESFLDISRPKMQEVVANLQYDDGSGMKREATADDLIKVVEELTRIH
T2 sequence (Q13422 whole entry): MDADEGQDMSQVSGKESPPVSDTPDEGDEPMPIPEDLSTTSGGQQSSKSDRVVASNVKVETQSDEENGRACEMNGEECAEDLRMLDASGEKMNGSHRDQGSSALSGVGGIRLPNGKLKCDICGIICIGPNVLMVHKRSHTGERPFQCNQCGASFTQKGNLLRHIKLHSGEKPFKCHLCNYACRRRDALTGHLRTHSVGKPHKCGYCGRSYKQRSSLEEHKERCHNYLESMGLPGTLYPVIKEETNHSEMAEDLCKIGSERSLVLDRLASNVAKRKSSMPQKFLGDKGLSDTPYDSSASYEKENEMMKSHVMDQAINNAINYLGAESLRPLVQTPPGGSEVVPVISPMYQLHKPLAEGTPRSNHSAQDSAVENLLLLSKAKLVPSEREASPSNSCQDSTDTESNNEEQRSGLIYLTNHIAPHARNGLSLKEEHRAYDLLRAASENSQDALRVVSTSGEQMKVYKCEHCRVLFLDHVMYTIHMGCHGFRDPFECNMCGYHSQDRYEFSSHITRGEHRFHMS
In words: Helios Cellular Degradation Assay, Ikaros readout (flow cytometry, Ikaros-Alexa488 antibody staining, 72 h). Type of test: cell-based. The settings on record: Jurkat cells, 72 h incubation, flow cytometry; for Dmax: Jurkat, read-out: Ikaros Dmax. Put shortly:
as §1
In general terms: Flow cytometry measures light scatter and fluorescence of single cells or particles in a stream.

Where [1] appears, read: Jurkat cells, 72 h incubation, flow cytometry.

Read-outs that look alike come from different tables or passages of the source.

T1 sequence (Q9UKS7 whole entry): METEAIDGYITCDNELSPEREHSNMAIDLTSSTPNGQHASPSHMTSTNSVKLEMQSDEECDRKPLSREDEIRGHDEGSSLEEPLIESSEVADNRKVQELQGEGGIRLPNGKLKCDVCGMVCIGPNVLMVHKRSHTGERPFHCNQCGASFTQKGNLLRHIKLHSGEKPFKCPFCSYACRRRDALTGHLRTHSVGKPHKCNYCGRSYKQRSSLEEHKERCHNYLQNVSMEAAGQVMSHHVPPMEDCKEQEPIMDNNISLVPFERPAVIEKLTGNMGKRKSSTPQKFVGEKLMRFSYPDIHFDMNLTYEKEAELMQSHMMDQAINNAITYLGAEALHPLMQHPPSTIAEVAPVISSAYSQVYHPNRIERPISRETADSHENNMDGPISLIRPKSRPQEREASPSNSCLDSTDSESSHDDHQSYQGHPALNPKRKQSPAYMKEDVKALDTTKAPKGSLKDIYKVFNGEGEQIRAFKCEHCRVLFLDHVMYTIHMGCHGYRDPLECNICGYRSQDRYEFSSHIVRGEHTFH
T1 sequence (Q96SW2 whole entry): as the sequence (Q96SW2 whole entry partner) above
T1 sequence (Q16531 whole entry partner): as the sequence (Q16531 whole entry partner) above

For `C[C@H](c1ccccc1)N(C)Cc1ccnc(-c2ccc3c(c2)CN(C2CCC(=O)NC2=O)C3=O)c1` (stereo partly drawn) [Example 137, 3-(5-(4-((methyl((R)-1-phenylethyl)amino)methyl)pyridin-2-yl)-1-oxoisoindolin-2-yl)piperidine-2,6-dione], on Helios (setting [1]), half-maximal degradation (DC50) was put at 98 nM and the Dmax (usually the largest share of the target that was removed) came to 67%. Moreover, at Ikaros, the DC50 (commonly the concentration at which degradation of the target reaches its halfway point) is more than 10000 nM and the Dmax came to 8%.
For `COC1CN(Cc2ccnc(-c3ccc4c(c3)CN(C3CCC(=O)NC3=O)C4=O)c2)C1` (stereo not drawn) [Example 197, 3-(5-(4-((3-methoxyazetidin-1-yl)methyl)pyridin-2-yl)-1-oxoisoindolin-2-yl)piperidine-2,6-dione] the same measures were 42 nM, 75%, more than 10000 nM and 20%.
For `CC1(c2ccc(N)cc2)CCN(Cc2ccnc(-c3ccc4c(c3)CN(C3CCC(=O)NC3=O)C4=O)c2)CC1` (stereo not drawn) [Example 121, 3-(5-(4-((4-(4-aminophenyl)-4-methylpiperidin-1-yl)methyl)pyridin-2-yl)-1-oxoisoindolin-2-yl)piperidine-2,6-dione], the DC50 was 24 nM on Helios (setting [1]) and more than 10000 nM at Ikaros. The Dmax was 77% at Helios and 19% at Ikaros.
In the case of `O=C1CCC(N2Cc3cc(-c4cc(CN[C@H](CCO)c5ccccc5)ccn4)ccc3C2=O)C(=O)N1` (stereo partly drawn) [Example 131, 3-(5-(4-((((R)-3-hydroxy-1-phenylpropyl)amino)methyl)pyridin-2-yl)-1-oxoisoindolin-2-yl)piperidine-2,6-dione], at Helios (setting [1]), the half-maximal degradation concentration (DC50) was determined as 14 nM and the Dmax was 83%. Moreover, at Ikaros, the DC50 was more than 10000 nM and the Dmax was determined as 9%.
For `O=C1CCC(N2Cc3cc(-c4cc(CN5CC(c6cccnc6)C5)ccn4)ccc3C2=O)C(=O)N1` (stereo not drawn) [Example 203, 3-(1-oxo-5-(4-((3-(pyridin-3-yl)azetidin-1-yl)methyl)pyridin-2-yl)isoindolin-2-yl)piperidine-2,6-dione], in that order: 440 nM, 69%, more than 10000 nM and 20%.
For `O=C1CCC(N2Cc3cc(-c4cc(CN5CCC(c6ccccc6)CC5)ccn4)ccc3C2=O)C(=O)N1` (stereo not drawn) [Example 141, 3-(1-oxo-5-(4-((4-phenylpiperidin-1-yl)methyl)pyridin-2-yl)isoindolin-2-yl)piperidine-2,6-dione] the same measures were 46 nM, 82%, more than 10000 nM and 20%.
“3-(1-oxo-5-(4-((4-(pyridin-2-yl)piperidin-1-yl)methyl)pyridin-2-yl)isoindolin-2-yl)piperidine-2,6-dione [Example 15]”: on Helios (setting [1]), the DC50 was more than 10000 nM and the “Helios Dmax” value amounted to 5%. In addition, on Ikaros, the DC50 was more than 10000 nM and the “Ikaros Dmax” value is recorded as 8%.
Turning to `Cc1ccc(CNCc2ccnc(-c3ccc4c(c3)CN(C3CCC(=O)NC3=O)C4=O)c2)cc1` (stereo not drawn) [Example 58, 3-(5-(4-(((4-methylbenzyl)amino)methyl)pyridin-2-yl)-1-oxoisoindolin-2-yl)piperidine-2,6-dione], on Helios (setting [1]), the DC50 came to 9 nM and the Dmax turned out to be 88%. At Ikaros, the DC50 is more than 10000 nM and the Dmax amounted to 22%.
For `C[C@H]1CCCN1Cc1ccnc(-c2ccc3c(c2)CN(C2CCC(=O)NC2=O)C3=O)c1` (stereo partly drawn) [Example 69, 3-(5-(4-(((S)-2-methylpyrrolidin-1-yl)methyl)pyridin-2-yl)-1-oxoisoindolin-2-yl)piperidine-2,6-dione] the same measures were 783 nM, 57%, more than 10000 nM and 0%.
For `NC(=O)C1CCN(Cc2ccnc(-c3ccc4c(c3)CN(C3CCC(=O)NC3=O)C4=O)c2)CC1` (stereo not drawn) [Example 41, 1-((2-(2-(2,6-dioxopiperidin-3-yl)-1-oxoisoindolin-5-yl)pyridin-4-yl)methyl)piperidine-4-carboxamide] the same measures were 727 nM, 80%, more than 10000 nM and 24%.
For the compound `C[C@@H]1C[C@H](C)CN(Cc2ccnc(-c3ccc4c(c3)CN(C3CCC(=O)NC3=O)C4=O)c2)C1` (stereo partly drawn) [Example 81, 3-(5-(4-(((3S,5R)-3,5-dimethylpiperidin-1-yl)methyl)pyridin-2-yl)-1-oxoisoindolin-2-yl)piperidine-2,6-dione], at Helios (setting [1]), the DC50 stood at 78 nM and the maximal degradation (Dmax) amounted to 64%. At Ikaros, the half-maximal degradation concentration (DC50) was more than 10000 nM and the Dmax turned out to be 26%.
For `O=C1CCC(N2Cc3cc(-c4cc(CN5CCC[C@H]5c5ccccc5)ccn4)ccc3C2=O)C(=O)N1` (stereo partly drawn) [Example 133, 3-(1-oxo-5-(4-(((S)-2-phenylpyrrolidin-1-yl)methyl)pyridin-2-yl)isoindolin-2-yl)piperidine-2,6-dione] the same measures were 75 nM, 84%, more than 10000 nM and 7%.
For `CCN(CC)C(=O)C1CCCN(Cc2ccnc(-c3ccc4c(c3)CN(C3CCC(=O)NC3=O)C4=O)c2)C1` (stereo not drawn) [Example 13, 1-((2-(2-(2,6-dioxopiperidin-3-yl)-1-oxoisoindolin-5-yl)pyridin-4-yl)methyl)-N,N-diethylpiperidine-3-carboxamide] the same measures were 200 nM, 67%, more than 10000 nM and 8%.
As to `CCN(C)Cc1ccnc(-c2ccc3c(c2)CN(C2CCC(=O)NC2=O)C3=O)c1` (stereo not drawn) [Example 6], on Helios (setting [1]), the DC50 turned out to be 28 nM and the “Helios Dmax” value worked out at 86%. Besides, at Ikaros, the 50% degradation concentration (DC50) was more than 10000 nM and the “Ikaros Dmax” value is given as 6%.
Take `O=C1CCC(N2Cc3cc(-c4cc(CNCCCN5CCCC5=O)ccn4)ccc3C2=O)C(=O)N1` (stereo not drawn) [Example 115, 3-(1-oxo-5-(4-(((3-(2-oxopyrrolidin-1-yl)propyl)amino)methyl)pyridin-2-yl)isoindolin-2-yl)piperidine-2,6-dione]: the DC50 on Helios (setting [1]) was 528 nM; at Ikaros, more than 10000 nM. The Dmax at Helios (setting [1]) is 78%; at Ikaros it was 6%.
For `COC(=O)CCNCc1ccnc(-c2ccc3c(c2)CN(C2CCC(=O)NC2=O)C3=O)c1` (stereo not drawn) [Example 112, methyl 3-(((2-(2-(2,6-dioxopiperidin-3-yl)-1-oxoisoindolin-5-yl)pyridin-4-yl)methyl)amino)propanoate] the same measures were 921 nM, more than 10000 nM, 74% and 2%.
For `O=C1CCC(N2Cc3cc(-c4cc(CN5CCC[C@@H](c6ccccc6)C5)ccn4)ccc3C2=O)C(=O)N1` (stereo partly drawn) [Example 135, 3-(1-oxo-5-(4-(((S)-3-phenylpiperidin-1-yl)methyl)pyridin-2-yl)isoindolin-2-yl)piperidine-2,6-dione] the same measures were 1310 nM, more than 10000 nM, 60% and 4%.
For `O=C1CCC(N2Cc3cc(-c4cc(CN5CCN(Cc6ccc7c(c6)OCO7)CC5)ccn4)ccc3C2=O)C(=O)N1` (stereo not drawn) [Example 12, 3-(5-(4-((4-(benzo[d][1,3]dioxol-5-ylmethyl)piperazin-1-yl)methyl)pyridin-2-yl)-1-oxoisoindolin-2-yl)piperidine-2,6-dione] the same measures were more than 10000 nM, more than 10000 nM, 37% and 16%.

(Values after patent US11548870B2, “Compounds useful as inhibitors of helios protein” (Bristol-Myers Squibb Company, priority 2019, dated 2023).)
